From article PMC5844225 (Journal of medicinal chemistry, 2016)

Experiments:
S. mansoni schistosomula = assay: Automated ex vivo larval S. mansoni HCS assay; type: cell-based, Schistosoma mansoni; conditions: 48 h exposure
SmTGR = conditions: cited from earlier work

Structure (SMILES) | schistosomula phenotype (S. mansoni schistosomula) | SmTGR inhibition mode (SmTGR)
Cc1noc(/C=C/c2ccccn2)c1[N+](=O)[O-] [Compound 3, 2-[2-(3-methyl-4-nitro-5-isoxazolyl)vinyl]pyridine] | internal disruption of larvae | 
O=S(=O)(Cc1ccccc1)c1nc2ccccc2s1 [Compound 4, 2-(benzylsulfonyl)-1,3-benzothiazole] | internal disruption of larvae | 
Cc1c(-c2cnccn2)ssc1=S [OLT, oltipraz] |  | noncompetitive inhibitor
